Values after ≈ are worked out from the molar mass of the structure shown. Like-named read-outs stand apart in the source and are kept apart here.
Tests used:
[1] = HTChem stab assay (chemical stability in buffer pH2, pH4 and pH7 vs DMSO reference); format: physicochemical; conditions: 72 h, 50 µM; for Chemical stability data, Buffer pH2: pH 2; for Chemical stability data, Buffer pH4: pH 4; for Chemical stability data, Buffer pH7: pH 7
Method: HTChem stab assay was used to assess the chemical stability of the compounds. 72 h stirring at rt in a buffer pH2, pH4 and pH7 vs a reference DMSO solution. HTChem stab assay is based on the handbook of Pharmaceutical Stress Testing, Predicting Drug Degradation, second edition, authors Baertschi, Alsante, Reed ISBN 978-143980179-6.
Compounds were plated (1 μl 10 mM DMSO stock in 96 well plate (DMSO control+3 pH conditions), one plate per condition).
200 μL of respectively DMSO, Buffer/DMSO mix pH2, Buffer/DMSO mix pH4 and Buffer/DMSO mix pH7 was added.
After 72 h shaking (300 rpm) at room temperature the samples were analysed by LC/UV/MS. Chromatograms of samples (stability conditions) were compared with the chromatograms of control sample (DMSO). Extra peaks were flagged and identified by mass spectrometry. Sample purity (reference included) were reported.
• pH3 buffer: For 11; weigh 4.14 g NaH2PO4·H2O, add 600 ml H2O, add H3PO4 to pH3, add H2O to 1000 ml. Filter over 0.2 μm and store at 4° C. Expires after 30 days. • pH6 buffer: For 1 l; weigh 4.14 g NaH2PO4·H2O, add 600 ml H2O, add 1N NaOH to pH6, add H2O to 1000 ml. Filter over […] and store at 4° C. Expires after 30 days.
• pH2 Buffer/DMSO (StabSolvent): mix 2 parts of HCl 0.1N with 1 part of DMSO • pH4 Buffer/DMSO (StabSolvent): mix 2 parts of buffer pH3 with 1 part of DMSO • pH7 Buffer/DMSO (StabSolvent): mix 2 parts of buffer pH6 with 1 part of DMSO measure pH prior to use.
Instrument: Acquity UPLC; Column: Acquity HSS T3, 50 mm length×2.1 mm i.d., 1.8 μm particle size. Detectors: PDA (250-350 nm) and SQD2 (90-1500m/z). Mobile phase A: 0.1% Formic acid in water; Mobile phase B: 0.1% Formic acid in Acetonitrile.
Injection volume: 5 μL, flow rate 0.6 mL/min.
Data processing including peak integration and identification was done with Waters OpenLynx software.

[2] = tested on: Mycobacterium tuberculosis strain H37Rv; experiment: Test 2: MIC determination against M. tuberculosis, resazurin fluorescence; format: cell-based; conditions: Test 2, M. tuberculosis H37Rv; for MIC90: read-out: Bacterial activity MIC90; for IC50: read-out: Bacterial activity pMIC50 (converted)
[3] = Metabolic stability in liver microsomes (intrinsic clearance); format: in vitro ADME; conditions: for Metabolic Stability (liver microsome intrinsic clearance) Clearance (mouse, μl/min./mg protein): mouse liver microsomes
Procedure, shortened: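 Compound (typically 1 μM) incubated at 37° C with liver microsomes (0.5 mg/ml protein) of selected species, 1 mM NADPH, 1 mM MgCl2, 0.1 M phosphate pH 7.4, sampled 0–60 min. Parent remaining measured by LC-MS/MS; t1/2 from log-linear slope, then Clint in μl/min/mg protein.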

[4] = tested on: Salmonella typhimurium Ames II Mixed Strains (TA7001-TA7006) and TA98; experiment: Genotoxicity assay (AmesIIb mutagenicity test); format: cell-based; conditions: Salmonella typhimurium; note: key: an AmesIIb score of 1 shows no genotoxicity signals
Text: The aim is to evaluate compounds (and/or their metabolites) for their ability to induce reverse mutations in a gene of histidine-requiring Salmonella typhimurium strains to produce histidine-independent strains of these bacteria, in the absence and in the presence of a mammalian metabolic activation system.
Point mutations were made in the histidine (His) operon in Salmonella typhimurium, rendering the bacteria incapable of producing histidine. These single base substitutions are positioned at strategic points within the His gene, resulting in his-organisms that cannot grow unless histidine is supplied. When a mutagenic event occurs, base substitutions within the His gene then cause the reversion of the his-Ames II™ strains to His.
A chemical's mutagenic potential is assessed by exposing these his-organisms to varying concentrations of chemical and selecting for the reversion event. Medium lacking histidine is used for this selection which allows only those cells that have undergone the his- to His reversion to survive and grow.
The assay may be performed using a kit and instructions from Xenometric. The two strains provided in the Xenometric kit are the Ames II™ Mixed Strains and TA98. The Ames II™ Mixed Strains contains an equimolar mixture of the Ames II™ TA7001-TA7006 strains. Individually, these strains are designed to revert by only one specific base-pair substitution out of six possible changes. Thus, when mixed, all six base substitution mutations can be represented in one culture. This kit also contains TA98 for the detection of frameshift mutations.

[5] = mouse, microsomes, 1 µM, pH 7.4
[6] = Mycobacterium tuberculosis, H37RV
[7] = mouse, microsomes, pH 7.4, Metabolic Stability Half life (mouse, min.)
[8] = mouse, microsomes, pH 7.4, mouse liver microsomes, read-out: Metabolic Stability (liver microsome intrinsic clearance) Clearance (mouse, μl/min./mg protein)
[9] = human, microsomes, pH 7.4, Metabolic Stability Half life (human, min.)
[10] = human, microsomes, pH 7.4, human liver microsomes, read-out: Metabolic Stability (liver microsome intrinsic clearance) Clearance (human, μl/min./mg protein)

## CCc1nc2ncc(C)cn2c1C(=O)NCc1ccc(-c2cn3c(n2)CC(C(F)(F)F)CC3)cc1 (single isomer, unassigned) [Compound 3a]
[1]
  Chemical stability data, Vehicle DMSO: 100%
  Chemical stability data, Buffer pH2: 100%
  Chemical stability data, Buffer pH4: 100%
  Chemical stability data, Buffer pH7: 100%
[2]
  Bacterial activity pMIC50: 8.532
  MIC90: 0.008 µM (≈ 0.00386 µg/mL)
[3]; human liver microsomes
  Metabolic Stability (liver microsome intrinsic clearance) Clearance (human, μl/min./mg protein): 13.4 μl/min./mg protein
[3]; human, microsomes, 1 µM, pH 7.4
  Metabolic Stability Half life (human, min.): 1.72 h
[3]
  Metabolic Stability (liver microsome intrinsic clearance) Clearance (mouse, μl/min./mg protein): 7.78 μl/min./mg protein
[3]; [5]
  Metabolic Stability Half life (mouse, min.): 2.97 h
[4]
  GeneTox AmesIIb Score: 1

## CCc1nc2nc(C)ccn2c1C(=O)NCc1ccc(-c2nc3n(n2)CCC(C(F)(F)F)C3)cc1 (single isomer, unassigned) [Compound 5a]
[1]
  Chemical stability data, Vehicle DMSO: 100%
  Chemical stability data, Buffer pH2: 100%
  Chemical stability data, Buffer pH4: 100%
  Chemical stability data, Buffer pH7: 100%
[2]; [6]
  MIC90: 0.06 µM (≈ 0.029 µg/mL)
  IC50: 21600 pM
[3]; [7]
  half-life at 1 µM: > 3 h
[3]; [8]
  microsomal CLint at 1 µM: < 7.7 µL/min/mg
[4]
  GeneTox AmesIIb Score: 1

## CCc1nc2ncc(Cl)cn2c1C(=O)NCc1ccc(-c2nc3n(n2)CCC(C(F)(F)F)C3)cc1 (single isomer, unassigned) [Compound 10a]
[1]
  Chemical stability data, Vehicle DMSO: 100%
  Chemical stability data, Buffer pH2: 84%
  Chemical stability data, Buffer pH4: 76%
  Chemical stability data, Buffer pH7: 97%
[2]
  Bacterial activity pMIC50: <6.301
[3]; [7]
  half-life at 1 µM: > 3 h
[3]; [8]
  microsomal CLint at 1 µM: < 7.7 µL/min/mg
[4]
  GeneTox AmesIIb Score: 1

## CCc1nc2ncc(Cl)cn2c1C(=O)NCc1ccc(-c2nc3n(n2)CCC(C(F)(F)F)C3)cc1 (single isomer, unassigned) [Compound 10b]
[1]
  Chemical stability data, Vehicle DMSO: 96%
  Chemical stability data, Buffer pH2: 81%
  Chemical stability data, Buffer pH4: 71%
  Chemical stability data, Buffer pH7: 92%
[2]; [6]
  MIC90: 0.021 µM (≈ 0.0106 µg/mL)
[2]
  Bacterial activity pMIC50: 8.207
[3]
  Metabolic Stability (liver microsome intrinsic clearance) Clearance (mouse, μl/min./mg protein): 11.1 μl/min./mg protein
[3]; [5]
  Metabolic Stability Half life (mouse, min.): 2.08 h
[4]
  GeneTox AmesIIb Score: 1

## CCc1nc2ncc(C)cn2c1C(=O)NCc1ccc(-c2nc3n(n2)CCC(C(F)(F)F)C3)cc1 (centres unmarked) [Compound 1ab]
[1]
  Chemical stability data, Vehicle DMSO: 100%
  Chemical stability data, Buffer pH2: 100%
  Chemical stability data, Buffer pH4: 100%
  Chemical stability data, Buffer pH7: 100%
[2]; [6]
  MIC90: 0.028 µM (≈ 0.0135 µg/mL)
  IC50: 9550 pM
[3]; [9]
  half-life at 1 µM: > 3 h
[3]; [10]
  microsomal CLint at 1 µM: < 7.7 µL/min/mg
[3]; [7]
  half-life at 1 µM: > 3 h
[3]; [8]
  microsomal CLint at 1 µM: < 7.7 µL/min/mg
[4]
  GeneTox AmesIIb Score: 1

## CCc1nc2ncc(C)cn2c1C(=O)NCc1ccc(-c2nc3n(n2)CCC(C)C3)cc1 (centres unmarked) [Compound 4ab]
[1]
  Chemical stability data, Vehicle DMSO: 98%
  Chemical stability data, Buffer pH2: 98%
  Chemical stability data, Buffer pH4: 98%
  Chemical stability data, Buffer pH7: 98%
[2]; [6]
  MIC90: 0.017 µM (≈ 0.0073 µg/mL)
  IC50: 7050 pM
[3]; [7]
  half-life at 1 µM: 2.75 h
[3]; [8]
  microsomal CLint at 1 µM: 8.38 µL/min/mg
[4]
  GeneTox AmesIIb Score: 1

## CCc1nc2nc(C)ccn2c1C(=O)NCc1ccc(-c2nc3n(n2)CCC(C(F)(F)F)C3)cc1 (centres unmarked) [Compound 5ab]
[1]
  Chemical stability data, Vehicle DMSO: 94%
  Chemical stability data, Buffer pH2: 95%
  Chemical stability data, Buffer pH4: 96%
  Chemical stability data, Buffer pH7: 96%
[2]; [6]
  MIC90: 0.023 µM (≈ 0.0111 µg/mL)
  IC50: 8280 pM
[3]; [7]
  half-life at 1 µM: > 3 h
[3]; [8]
  microsomal CLint at 1 µM: < 7.7 µL/min/mg
[4]
  GeneTox AmesIIb Score: 1

## CCc1nc2ncc(OC)cn2c1C(=O)NCc1ccc(-c2nc3n(n2)CCC(C(F)(F)F)C3)cc1 (centres unmarked) [Compound 6ab]
[1]
  Chemical stability data, Vehicle DMSO: 93%
  Chemical stability data, Buffer pH2: 100%
  Chemical stability data, Buffer pH4: 100%
  Chemical stability data, Buffer pH7: 100%
[2]; [6]
  MIC90: 0.007 µM (≈ 0.0035 µg/mL)
  IC50: 3480 pM
[3]; [7]
  half-life at 1 µM: 1.62 h
[3]; [8]
  microsomal CLint at 1 µM: 14.2 µL/min/mg
[4]
  GeneTox AmesIIb Score: 1

## CCc1nc2nc(C)c(C)cn2c1C(=O)NCc1ccc(-c2nc3n(n2)CCC(C(F)(F)F)C3)cc1 (centres unmarked) [Compound 9ab]
[1]
  Chemical stability data, Vehicle DMSO: 100%
  Chemical stability data, Buffer pH2: 100%
  Chemical stability data, Buffer pH4: 100%
  Chemical stability data, Buffer pH7: 100%
[2]; [6]
  MIC90: 0.011 µM (≈ 0.00547 µg/mL)
  IC50: 4940 pM
[3]; [7]
  half-life at 1 µM: 1.66 h
[3]; [8]
  microsomal CLint at 1 µM: 13.9 µL/min/mg
[4]
  GeneTox AmesIIb Score: 1

## CCc1nc2ncc(Cl)cn2c1C(=O)NCc1ccc(-c2nc3n(n2)CCC(C(F)(F)F)C3)cc1 (centres unmarked) [Compound 10ab]
[1]
  Chemical stability data, Vehicle DMSO: 90%
  Chemical stability data, Buffer pH2: 72%
  Chemical stability data, Buffer pH4: 64%
  Chemical stability data, Buffer pH7: 90%
[2]; [6]
  MIC90: 0.016 µM (≈ 0.00806 µg/mL)
  IC50: 5500 pM
[3]; [7]
  half-life at 1 µM: > 3 h
[3]; [8]
  microsomal CLint at 1 µM: < 7.7 µL/min/mg
[4]
  GeneTox AmesIIb Score: 1

## CCc1nc2nc(N)c(C)cn2c1C(=O)NCc1ccc(-c2nc3n(n2)CCC(C(F)(F)F)C3)cc1 (centres unmarked) [Compound 12ab]
[1]
  Chemical stability data, Vehicle DMSO: 99%
  Chemical stability data, Buffer pH2: 100%
  Chemical stability data, Buffer pH4: 100%
  Chemical stability data, Buffer pH7: 100%
[2]; [6]
  MIC90: 0.064 µM (≈ 0.0319 µg/mL)
  IC50: 23400 pM
[3]; [9]
  half-life at 1 µM: > 3 h
[3]; [10]
  microsomal CLint at 1 µM: < 7.7 µL/min/mg
[3]; [7]
  half-life at 1 µM: > 3 h
[3]; [8]
  microsomal CLint at 1 µM: < 7.7 µL/min/mg
[4]
  GeneTox AmesIIb Score: 1
